Data: patent US11478476B2 (CONTERA PHARMA APS, priority 2014, dated 2022)

What was measured:
[1] = target: T1, human recombinant dopamine D4 receptor (Homo sapiens, UniProt P21917); conditions: saturating concentrations of dopamine; read-out: D4 efficacy IC50 ± SEM; cited from earlier work
T1 sequence (P21917 1-419): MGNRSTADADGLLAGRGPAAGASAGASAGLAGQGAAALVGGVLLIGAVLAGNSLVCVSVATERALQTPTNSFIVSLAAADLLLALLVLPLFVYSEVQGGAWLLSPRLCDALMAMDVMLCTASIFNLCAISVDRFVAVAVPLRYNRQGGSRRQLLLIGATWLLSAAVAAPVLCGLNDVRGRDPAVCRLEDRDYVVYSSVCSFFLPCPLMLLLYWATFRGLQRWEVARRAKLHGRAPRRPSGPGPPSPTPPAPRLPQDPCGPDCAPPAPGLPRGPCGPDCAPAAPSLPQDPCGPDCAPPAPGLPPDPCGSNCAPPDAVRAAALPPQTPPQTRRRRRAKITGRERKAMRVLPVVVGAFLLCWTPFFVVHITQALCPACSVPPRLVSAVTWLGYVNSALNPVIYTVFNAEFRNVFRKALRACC

[2] = target: T1, human recombinant dopamine D4 receptor; conditions: read-out: D4 affinity Ki ± SEM; cited from earlier work
[3] = target: T2, human recombinant dopamine D3 receptor (Homo sapiens, UniProt P35462); conditions: saturating concentrations of dopamine; read-out: D3 efficacy IC50 ± SEM; cited from earlier work
T2 sequence (P35462 whole entry): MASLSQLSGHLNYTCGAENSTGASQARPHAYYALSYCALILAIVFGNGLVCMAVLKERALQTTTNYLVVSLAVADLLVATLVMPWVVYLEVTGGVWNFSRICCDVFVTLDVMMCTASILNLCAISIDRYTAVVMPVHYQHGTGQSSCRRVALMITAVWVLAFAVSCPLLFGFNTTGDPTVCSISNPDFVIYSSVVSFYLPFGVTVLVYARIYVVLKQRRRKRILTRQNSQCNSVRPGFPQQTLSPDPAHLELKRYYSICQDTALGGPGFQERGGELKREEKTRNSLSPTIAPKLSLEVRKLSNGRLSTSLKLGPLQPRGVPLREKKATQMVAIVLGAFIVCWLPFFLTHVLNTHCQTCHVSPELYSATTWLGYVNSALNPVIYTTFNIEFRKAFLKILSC

[4] = target: T3, human recombinant dopamine D2 receptor (Homo sapiens, UniProt P14416); conditions: read-out: D2 affinity Ki ± SEM; cited from earlier work
T3 sequence (P14416 whole entry): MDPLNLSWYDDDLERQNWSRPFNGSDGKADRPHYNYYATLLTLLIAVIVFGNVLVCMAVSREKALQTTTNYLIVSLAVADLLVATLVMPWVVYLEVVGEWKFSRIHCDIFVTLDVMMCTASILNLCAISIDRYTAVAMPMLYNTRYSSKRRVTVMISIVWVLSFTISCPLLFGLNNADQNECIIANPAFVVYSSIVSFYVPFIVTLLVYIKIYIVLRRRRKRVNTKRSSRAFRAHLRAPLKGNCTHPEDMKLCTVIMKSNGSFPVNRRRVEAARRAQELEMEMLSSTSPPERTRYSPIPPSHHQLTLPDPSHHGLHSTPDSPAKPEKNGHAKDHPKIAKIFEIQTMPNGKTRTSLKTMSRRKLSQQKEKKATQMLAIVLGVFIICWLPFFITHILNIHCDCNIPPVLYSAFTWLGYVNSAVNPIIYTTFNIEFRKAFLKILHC

[5] = target: T3, human recombinant dopamine D2 receptor; conditions: saturating concentrations of dopamine; read-out: D2 efficacy IC50 ± SEM; cited from earlier work
[6] = target: T4, human recombinant 5-HT1A receptors (Homo sapiens, UniProt P08908); conditions: cited from earlier work; for Ki: nM printed, table head has no unit
T4 sequence (P08908 1-422): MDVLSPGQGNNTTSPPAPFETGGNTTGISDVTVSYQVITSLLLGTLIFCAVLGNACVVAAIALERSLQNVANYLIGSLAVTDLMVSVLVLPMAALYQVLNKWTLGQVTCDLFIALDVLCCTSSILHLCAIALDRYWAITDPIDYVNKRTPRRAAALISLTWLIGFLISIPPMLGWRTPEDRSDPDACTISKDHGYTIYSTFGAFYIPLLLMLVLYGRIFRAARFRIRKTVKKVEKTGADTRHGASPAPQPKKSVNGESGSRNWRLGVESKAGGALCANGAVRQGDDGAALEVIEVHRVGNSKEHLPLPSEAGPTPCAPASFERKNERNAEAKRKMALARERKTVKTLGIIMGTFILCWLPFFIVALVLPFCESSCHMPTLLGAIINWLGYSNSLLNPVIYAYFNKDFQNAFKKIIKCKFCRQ

[7] = target: T2, human recombinant dopamine D3 receptor; conditions: read-out: D3 affinity Ki ± SEM; cited from earlier work
[8] = system: L-DOPA induced dyskinesia (LID) model rats; assay: L-DOPA induced AIMs in 6-OHDA lesioned LID model rats; format: in vivo, rat
Source text: Animals: 80 experimentally-naïve, male, 9 weeks old Sprague-Dawley rats at body weight of 200 to 250 g arrive at the laboratory at least 1 week prior to behavioural testing. Rats were housed in groups of n=2/cage. Animals had ad libitum access to standard rodent chow and water. Animal housing and testing rooms were maintained under controlled environmental conditions and were within close proximity of each other. Animal housing rooms were on a 12-hour light-dark cycle with lights on at 6:00 AM and maintained at 70° F./21° C. (range: 68-72° F./20-22° C.) with a humidity range of 20-40%. Testing rooms were maintained at 68-72° F. with a humidity range of 20-40%. DA (dopamine)-denervating lesions were performed by unilateral injection of 6-OHDA in the ascending nigrostriatal pathway. Rats were anesthetized with pentobarbital sodium 40 mg/kg (i.p.) and positioned in a stereotactic frame. 6-OHDA was injected into the right ascending DA bundle at the following coordinates relative to bregma and dural surface: A (anterior-posterior), L (lateral), V (dorsoventral): A −1.8, L −2.0, V −8.6, tooth bar 0.0.
The neurotoxin injections were performed at a rate of 1 ul/min, and the injection cannula is left in place for an additional 2-3 min thereafter. Two weeks after surgery, contralateral full body turns were recorded over 30 min, following s.c. injection of 0.5 mg/kg of apomorphine sulfate. The animals were placed in plastic Perspex bowls (30 cm in diameter) and the rotational behavior (360° turns) is recorded by an automated rotometer for […] after the s.c. injection of 0.5 mg/kg of apomorphine sulfate. Apomorphine (0.5 mg/kg, s.c.) induced contralateral rotation in unilateral 6-OHDA lesioned rats. 73 rats with rotations ≥180/30 min, indicating >90% DA lesion in nigrostriatal pathway, were chosen as the PD model rats for chronic L-DOPA treatment.
Starting one day after the apomorphine-induced rotation test, 6-OHDA-lesioned rats were treated with daily L-DOPA (Sigma-Aldrich, Germany) (8 mg/kg plus benserazide 15 mg/kg, s.c.) for 21 days. Rats were placed individually in transparent plastic cages without bedding material and scored every 20 min following the injection of L-DOPA for the entire time course of dyskinesias (120 min). The AIMs were classified into four subtypes according to their topographic distributions such as Locomotive, Forelimb, Axial and Orolingual behaviors. The severity of each AIM subtype was assessed by using scores from 0 to 4 (1: occasional, i.e. present less than 50% of the time; 2: frequent, i.e. present more than 50% of the time; 3: continuous, but interrupted by strong sensory stimuli; 4: continuous, not interrupted by strong sensory stimuli). In this study, rats with an AIMs≥28 were considered highly dyskinetic, while rats with an AIMs<28 either low or none-dyskinetic.
After chronic L-DOPA treatment on PD rats for 21 days, 42 LID model rats (348 g˜501 g, 15 weeks old) were successfully created with the criteria of total AIM scores (Lo+Li+AX+OI)≥28 points.
AIMs ratings were performed by an investigator who was kept unaware of the pharmacological treatment administered to each rat (experimentally blinded). In order to quantify the severity of the AIMs, rats were observed individually in their standard cages every 20th minute at 20-180 min after an injection of I-DOPA. The AIM's were classified into four subtypes:
Each of the four subtypes are scored on a severity scale from 0 to 4, where 0=absent, 1=present during less than half of the observation time, 2=present for more than half of the observation time, 3=present all the time but suppressible by external stimuli, and 4=present all the time and not suppressible by external stimuli. Axial, limb and orolingual AIMs are found to be modulated in a similar way by all the tested substances.
Rats were tested for AIMs using the sum of locomotive (LO) oraxial (AX), limb (LI), and orolingual (OL) AIM scores per testing session for statistical analyses. […]

[9] = after administration of radiolabeled buspirone; cited from earlier work
[10] = system: Parkinson's disease patients; conditions: cited from earlier work
[11] = oral administration of buspirone, human volunteers; analyte = label (6-OH-Busp: total, both enantiomers); cited from earlier work
[12] = system: dopamine D3 receptors; conditions: oral buspirone at therapeutically relevant doses; cited from earlier work
[13] = cited from earlier work
[14] = system: D2 receptors; conditions: oral buspirone; cited from earlier work
[15] = system: PD model rats; assay: Stepping test (adjusting steps) in PD model rats; format: in vivo, rat; conditions: 10 mg/kg, sc; PD model rats
Procedure: The stepping test (Schallert et al., 1992) was performed as described by Kirik et al., 2001 with little modifications. Briefly, the rat was held by the experimenter fixing its hindlimbs with one hand and the forelimb not to be monitored with the other, while the unrestrained forepaw was touching the table. The number of adjusting steps was counted, while the rat was moved sideways along the table surface (90 cm in 5 s), in the forehand and backhand direction, for both forelimbs, and the average of the steps in the two directions is considered.
30 male PD model rats were used for adjusting steps test with the following groups: • 1. Vehicle 1+Vehicle 2 (n=7) • 2. Vehicle 1+L-DOPA (10 mg/kg, sc) (n=7) • 3. 6-OH-Busp (3 mg/kg, sc)+Vehicle 2 (n=8) • 4. 6-OH-Busp (3 mg/kg, sc)+L-DOPA (10 mg/kg, sc)
The PD rats were handled for 3 consecutive days. Vehicle 1 or 6-OH-Busp will s.c. dosed 61 min before adjusting steps test. Vehicle 2 or L-DOPA/Benserazide dosed 60 min before adjusting steps test. On testing day, the rats were held by both hind limbs and the untested forepaw. The test forepaw was placed on a flat surface and dragged in the forehand direction for 90 cm distance over 5 s. The number of adjusting steps was counted for both paws in the backhand and forehand directions of movement. […] Data were analyzed and graphed by Graph Pad Prism 6.

O=C1CC2(CCCC2)CC(=O)N1CCCCN1CCN(c2ncc(O)cn2)CC1 [5-OH-Busp]
IC50 [1]: 1400 ± 820 nM
Ki [2]: 107 ± 44.8 nM
IC50 [3]: 930 ± 460 nM
Ki [4]: 4010 ± 792 nM
IC50 [5]: 2600 ± 1300 nM
IC50 [6]: 928 nM
Ki [6]: 464 nM
Ki [7]: 261 ± 46 nM

CN(C)CCc1c[nH]c2ccc(C[C@H]3COC(=O)N3)cc12 [Zolmitriptan, (S)-4-({3-[2-(dimethylamino)ethyl]-1H-indol-5-yl}methyl)-1,3-oxazolidin-2-one, reference compound]
AIMs at any time points ([8]; Example XIII, 10 mg/kg s.c.): did not have any effects

O=C1CC2(CCCC2)CC(=O)N1CCCCN1CCN(c2ncccn2)CC1 [Buspirone, 8-[4-(4-pyrimidin-2-ylpiperazin-1-yl)butyl]-8-azaspiro[4.5]decane-7,9-dione, reference compound]
IC50 [1]: 350 ± 60 nM
unchanged buspirone as share of total radioactivity in human plasma [9]: less than 2%
Ki [2]: 29.2 ± 11.3 nM
IC50 [3]: 440 ± 180 nM
disability ratings ([10]; 100 mg/day): significant worsening
dyskinesia ([10]; 100 mg/day): reduced
effects on Parkinson's disease or dyskinesia ([10]; 10-60 mg/day): did not have any effects
AUC0-INF [11]: 3.93 ngxh/ml
Cmax [11]: 1.39 ng/mL
total AIMs of LID rats at time points ([8]; Example XII, 1 mg/kg s.c., 50, 70, 90, 110, 130, 150, 170 and 190 min, vs vehicle): significantly attenuated
AUC of total AIMs from 10 min to 190 min ([8]; Example XII, buspirone 1 mg/kg s.c., 6-OH-Busp 0.3, 1 and 3 mg/kg s.c., vs vehicle): decreased
in vivo blockade of dopamine D3 receptors (PET) [12]: blocks
plasma half-life ([13]; rats): 54 ± 24 min
in vivo blockade of D2 receptors (PET) [14]: did not cause blockade
Ki [7]: 98 ± 16 nM

N[C@@H](Cc1ccc(O)c(O)c1)C(=O)O [L-DOPA, 3,4-dihydroxyphenylalanine, reference compound]
number of adjusting steps [15]: increased

CN1CC(=O)N=C1NC(=O)Nc1cccc(Cl)c1 [Fenobam, 1-(3-chlorophenyl)-3-(3-methyl-5-oxo-4H-imidazol-2-yl)urea, reference compound]
AIMs of LID rats at any time points ([8]; Example XIV, 30 mg/kg, s.c. as printed): did not have significant effects

c1cnc(N2CCNCC2)nc1 [1-PP, 1-(2-pyrimidinyl)-piperazine]
IC50 [6]: > 1000 nM
exposure (area under the concentration-time profile) of metabolite relative to parent compound ([13]; oral dosing of buspirone in rats): 49 fold

O=C1CC2(CCC(O)C2)CC(=O)N1CCCCN1CCN(c2ncccn2)CC1 (stereo not drawn) [3-OH-Busp]
IC50 [6]: 652 nM
Ki [6]: 326 nM
